# Test results from patent US8193364B2, “Insecticidal N-substituted (6-haloalkylpyridin-3-yl)-alkyl sulfoximines” (Dow AgroSciences, LLC., priority 2006, dated 2012).
# Legend:
# [1] = tested on: Cotton Aphid (Aphis gossypii); test: Cotton aphid foliar spray assay on squash; format: in vivo; details: 72 h, read-out: % Control of cotton aphid on squash (foliar spray)
# Method: Squash with fully expanded cotyledon leaves were trimmed to one cotyledon per plant and infested with cotton aphid (wingless adult and nymph) 1 day prior to chemical application. Each plant was examined before chemical application to ensure proper infestation (ca. 30-70 aphids per plant). Compounds (2 mg) were dissolved in 2 ml of acetone:methanol (1:1) solvent, forming stock solutions of 1000 ppm. The stock solutions were then diluted with a diluent consisting 80 parts of 0.025% Tween 20 in H2O and 20 parts of acetone:methanol (1:1). A hand-held Devilbiss sprayer was used to apply the test solutions until runoff to both sides of the squash cotyledon leaves. Four plants (4 replications) were used for each concentration of each compound. Reference plants (solvent check) were sprayed with the diluent only. Treated plants were held in a holding room for 3 days at approximately 23° C. and 40% RH before the number of live aphids on each plant was recorded. Insecticidal activity was measured by Corrected % Control using Abbott's correction formula and presented in Table 1: Corrected % Control=100*(X−Y)/X • where X=No. of live aphids on solvent check plants • Y=No. of live aphids on treated plants
# [2] = tested on: Cotton Aphid (Aphis gossypii); test: Cotton aphid seed coating assay on squash; format: in vivo; details: 10% SC formulation, infested 13 days after planting, counted 3 days later
# Method: Compound 2 was tested in an assay designed to evaluate its systemic activity for control of cotton aphid through seed-coating prior to planting. The crop used in this assay was a hybrid squash (var. Pic-N-Pic). Test compound was formulated in a 10% SC formulation. For the 1 mg/seed treatment, the original 10% formulation was used. For the 0.1 mg/seed treatment, the 10% formulation were diluted 10× with DI water before application. Ten squash seeds were used for each treatment. Seeds were placed on waxed paper and a pipette was used to apply the original or diluted formulations to each seed. One half (5 ul) of the sample was spread onto one side of a seed. Once dried (approximately 1 hr), the seed was flipped over and the 2nd half of sample was spread over the other side. The air-dried, treated seeds were individually planted into 3 inch pots containing metro mix. The pots were placed on a California cart and moved into the greenhouse for sub watering only. Thirteen days later, when the seedlings were approximately 9 inch tall with three expanding true leaves, the 1st leaf was infested with approximately 40 wingless aphids. The infested plants were kept in an environmental holding room (23 C, 40% RH, 16 hr light: 8 hr dark) for three days before the number of live aphids was counted under a microscope. […]
smiles,measurement,setting,value
"CC(c1ccc(C(F)(F)F)nc1)S(C)(=O)=NC#N (stereo not drawn) [Compound 2, [1-(6-trifluoromethylpyridin-3-yl)ethyl](methyl)-oxido-λ^4-sulfanylidenecyanamide]",pest or weed control at 0.049 ppm,[1],90 to 100%
same,pest or weed control at 0.195 ppm,[1],90 to 100%
same,pest or weed control at 0.781 ppm,[1],90 to 100%
same,pest or weed control at 3.13 ppm,[1],90 to 100%
same,"% Control, root uptake systemic, cotton aphid on squash",[2]; seed coating 0.1 mg/seed,99.7%
same,"% Control, root uptake systemic, cotton aphid on squash",[2]; seed coating 1 mg/seed,100%
